# Measurements: patent US8921267B2, “Safening 6-(trisubstituted phenyl)-4-amino-2-pyridinecarboxylate herbicide injury on cereal crops” (Dow AgroSciences LLC, priority 2008, dated 2014)
# Tests used:
# [1] = test system: bird's-eye speedwell (Veronica persica L; VERPE); test: Postemergence herbicidal activity, greenhouse, visual injury: bird's-eye speedwell; format: in vivo; parameters: key: visual injury, 0–100%: 0 = no injury, 100 = complete kill; settings: applied alone
# How it was run: (§1)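 Greenhouse, 18/17 °C, 14 h light; seedlings at 2–3 leaves; Compound 1 salts/ester ± safener in Agri-dex 1.5%, 187 L/ha overhead spray; sub-irrigation; visual % injury at 20-22 d; synergy via Colby.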
# [2] = test system: purple deadnettle (Lamium purpureum L; LAMPU); test: Postemergence herbicidal activity, greenhouse, visual injury: purple deadnettle; format: in vivo; settings: for LAMPU Ob: applied alone
# How it was run: (§2)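 Injury was rated visually on a 0 (none) to 100% (complete kill) scale 20-22 d after treatment, relative to solvent-blank plants. Treatments were two-way safener/herbicide combinations in 1.5% v/v crop oil concentrate, applied overhead at 187 L/ha to plants at the 2nd–3rd true leaf stage. Colby's equation gave expected mixture effects.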
# [3] = test system: corn poppy (Papaver rhoeas L; PAPRH); test: Postemergence herbicidal activity, greenhouse, visual injury: corn poppy; format: in vivo; settings: for PAPRH Ob: applied alone
# How it was run: as §2
# [4] = test system: wild pansy (Viola tricolor L; VIOTR); test: Postemergence herbicidal activity, greenhouse, visual injury: wild pansy; format: in vivo; parameters: key: visual injury, 0–100%: 0 = no injury, 100 = complete kill; settings: applied alone
# How it was run: as §2
# [5] = test system: Russian thistle (Salsola iberica L; SASKR); test: Postemergence herbicidal activity, greenhouse, visual injury: Russian thistle; format: in vivo; parameters: key: visual injury, 0–100%: 0 = no injury, 100 = complete kill; settings: applied alone
# How it was run: as §1
# [6] = test system: wild buckwheat (Polygonum convolvulus L; POLCO); test: Postemergence herbicidal activity, greenhouse, visual injury: wild buckwheat; format: in vivo; settings: applied alone
# How it was run: as §1
# [7] = test system: durum wheat (Triticum durum L; TRZDU); test: Postemergence herbicidal safening, greenhouse, visual injury: durum wheat; format: in vivo
# How it was run: (§3)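 Track-sprayer application, 187 L/ha, of Compound 1 (methyl ester, TEA or K salt) in two-way mixes with safeners, diluted from acetone/DMSO 97:3 stocks into 1.5% Agri-dex. Plants at 2–3 true leaves, sub-irrigated. Visual rating 0–100% vs solvent blank after 20-22 d.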
# [8] = test system: wheat (Triticum aestivum L; TRZAS); test: Postemergence herbicidal safening, greenhouse, visual injury: wheat; format: in vivo; settings: for TRZAS Ob: applied alone
# How it was run: as §3
# [9] = test system: chickweed (Stellaria media L; STEME); test: Postemergence herbicidal activity, greenhouse, visual injury: chickweed; format: in vivo; parameters: key: visual injury, 0–100%: 0 = no injury, 100 = complete kill; settings: applied alone
# How it was run: as §1
# [10] = test system: barley (Hordeum vulgare L; HORVS); test: Postemergence herbicidal safening, greenhouse, visual injury: barley; format: in vivo; settings: for HORVS Ob: applied alone
# How it was run: as §3
# [11] = test system: wheat (Triticum aestivum L; TRZAW); test: Postemergence herbicidal safening, greenhouse, visual injury: wheat (TRZAW); format: in vivo
# How it was run: as §3
# [12] = test system: cleavers (Galium aparine L; GALAP); test: Postemergence herbicidal activity, greenhouse, visual injury: cleavers; format: in vivo; parameters: key: visual injury, 0–100%: 0 = no injury, 100 = complete kill; settings: applied alone
# How it was run: as §1
# [13] = test system: barley (HORVW); test: Postemergence herbicidal safening, greenhouse, visual injury: barley (HORVW)
# [14] = test system: scented mayweed (Matricaria chamomila L; MATCH); test: Postemergence herbicidal activity, greenhouse, visual injury: scented mayweed; format: in vivo; parameters: key: % visual injury: 0 = no injury, 100 = complete kill; settings: applied alone
# Experimental: (§4) Evaluation of Postemergence Herbicidal Safening in Cereal Crops
# (§5) Seeds of the desired test plant species were planted in Sun Gro MetroMix® 306 planting mixture, which typically has a pH of 6.0 to 6.8 and an organic matter content of about 30 percent, in plastic pots with a surface area of 103.2 square centimeters (cm^2). When required to ensure good germination and healthy plants, a fungicide treatment and/or other chemical or physical treatment was applied. The plants were grown for 7-36 days (d) in a greenhouse with an approximate 14-hour (h) photoperiod which was maintained at about 18° C. during the day and 17° C. during the night. Nutrients and water were added on a regular basis and supplemental lighting was provided with overhead metal halide 1000-Watt lamps as necessary. The plants were employed for testing when they reached the second or third true leaf stage.
# (§6) Weighed amounts of esters (methyl) or salts (TEA [triethylammonium], K [potassium]) of 4-amino-3-chloro-6-(4-chloro-2-fluoro-3-methoxyphenyl)pyridine-2-carboxylic acid (Compound 1) were dissolved in a volume of 97:3 volume/volume (v/v) acetone/dimethylsulfoxide (DMSO) to obtain stock solutions. […] The concentrated stock solutions were diluted with an aqueous mixture of 1.5% v/v of Agri-dex crop oil concentrate to provide the appropriate application rates. Compound requirements are based upon a 12 mL application volume at a rate of 187 liters per hectare (L/ha). Stocks solutions of the safeners were prepared following the same procedure. Spray solutions of the safeners and experimental compound mixtures were prepared by adding the stock solutions to the appropriate amount of dilution solution to form a 12 mL spray solution with active ingredients in two-way combinations. Formulated compounds were applied to the plant material with an overhead Mandel track sprayer equipped with 8002E nozzles calibrated to deliver 187 L/ha over an application area of 0.503 square meters (m^2) at a spray height of 18 inches (43 centimeters (cm)) above average plant canopy. Control plants were sprayed in the same manner with the solvent blank.
# (§7) The treated plants and control plants were placed in a greenhouse as described above and watered by sub-irrigation to prevent wash-off of the test compounds. After 20-22 d, the condition of the test plants as compared with that of the control plants was determined visually and scored on a scale of 0 to 100 percent where 0 corresponds to no injury and 100 corresponds to complete kill.
# (§8) Colby's equation was used to determine the herbicidal effects expected from the mixtures (Colby, S. R. Calculation of the synergistic and antagonistic response of herbicide combinations. Weeds 1967, 15, 20-22.).
# (§9) The following equation was used to calculate the expected activity of mixtures containing two active ingredients, A and B: Expected=A+B−(A×B/100)
# (§10) A=observed efficacy of active ingredient A at the same concentration as used in the mixture.
# (§11) B=observed efficacy of active ingredient B at the same concentration as used in the mixture.
# [15] = test system: kochia (Kochia scoparia L; KCHSC); test: Postemergence herbicidal activity, greenhouse, visual injury: kochia; format: in vivo; parameters: key: % visual injury: 0 = no injury, 100 = complete kill; settings: applied alone
# Experimental: as §4, §5, §6, §7, §8, §9, §10, §11
smiles,measurement,setting,value
CCOC(=O)C1=NN(c2ccc(Cl)cc2Cl)C(C)(C(=O)OCC)C1 (centres unmarked) [Mefenpyr-diethyl],VERPE Ob,[1]; 17.5 g/ha,0
same,VERPE Ob,[1]; 35 g/ha,0
same,VERPE Ob,[1]; 70 g/ha,0
same,VERPE Ob,[1]; 140 g/ha,0
same,LAMPU Ob (Observed values),[2]; safener 4.4 g/ha alone,0
same,LAMPU Ob (Observed values),[2]; safener 8.8 g/ha alone,0
same,LAMPU Ob (Observed values),[2]; safener 17.5 g/ha alone,0
same,LAMPU Ob (Observed values),[2]; safener 35 g/ha alone,0
same,PAPRH Ob,[3]; 17.5 g/ha,0
same,PAPRH Ob,[3]; 35 g/ha,0
same,PAPRH Ob,[3]; 70 g/ha,0
same,PAPRH Ob,[3]; 140 g/ha,0
same,PAPRH Ob (Observed values),[3]; safener 4.4 g/ha alone,0
same,PAPRH Ob (Observed values),[3]; safener 8.8 g/ha alone,0
same,PAPRH Ob (Observed values),[3]; safener 17.5 g/ha alone,0
same,PAPRH Ob (Observed values),[3]; safener 35 g/ha alone,0
same,VIOTR Ob,[4]; 17.5 g/ha,0
same,VIOTR Ob,[4]; 35 g/ha,0
same,VIOTR Ob,[4]; 70 g/ha,0
same,VIOTR Ob,[4]; 140 g/ha,0
same,SASKR Ob,[5]; 17.5 g/ha,0
same,SASKR Ob,[5]; 35 g/ha,0
same,SASKR Ob,[5]; 70 g/ha,0
same,SASKR Ob,[5]; 140 g/ha,0
same,POLCO Ob,[6]; 17.5 g/ha,0
same,POLCO Ob,[6]; 35 g/ha,0
same,POLCO Ob,[6]; 70 g/ha,0
same,POLCO Ob,[6]; 140 g/ha,0
same,TRZDU Ob (Observed values),[7]; safener 4.4 g/ha alone,0%
same,TRZDU Ob (Observed values),[7]; safener 8.8 g/ha alone,0%
same,TRZDU Ob (Observed values),[7]; safener 17.5 g/ha alone,0%
same,TRZDU Ob (Observed values),[7]; safener 35 g/ha alone,0%
same,TRZAS Ob,[8]; 17.5 g/ha,0%
same,TRZAS Ob,[8]; 35 g/ha,0%
same,TRZAS Ob,[8]; 70 g/ha,0%
same,TRZAS Ob,[8]; 140 g/ha,0%
same,TRZAS Ob (Observed values),[8]; safener 4.4 g/ha alone,0
same,TRZAS Ob (Observed values),[8]; safener 8.8 g/ha alone,0
same,TRZAS Ob (Observed values),[8]; safener 17.5 g/ha alone,0
same,TRZAS Ob (Observed values),[8]; safener 35 g/ha alone,0
same,STEME Ob,[9]; 17.5 g/ha,0
same,STEME Ob,[9]; 35 g/ha,0
same,STEME Ob,[9]; 70 g/ha,0
same,STEME Ob,[9]; 140 g/ha,0
same,HORVS Ob,[10]; 17.5 g/ha,0%
same,HORVS Ob,[10]; 35 g/ha,0%
same,HORVS Ob,[10]; 70 g/ha,0%
same,HORVS Ob,[10]; 140 g/ha,0%
same,HORVS Ob (Observed values),[10]; safener 4.4 g/ha alone,0
same,HORVS Ob (Observed values),[10]; safener 8.8 g/ha alone,0
same,HORVS Ob (Observed values),[10]; safener 17.5 g/ha alone,0
same,HORVS Ob (Observed values),[10]; safener 35 g/ha alone,0
same,TRZAW Ob (Observed values),[11]; safener 4.4 g/ha alone,0%
same,TRZAW Ob (Observed values),[11]; safener 8.8 g/ha alone,0%
same,TRZAW Ob (Observed values),[11]; safener 17.5 g/ha alone,0%
same,TRZAW Ob (Observed values),[11]; safener 35 g/ha alone,0%
same,GALAP Ob,[12]; 17.5 g/ha,0
same,GALAP Ob,[12]; 35 g/ha,0
same,GALAP Ob,[12]; 70 g/ha,0
same,GALAP Ob,[12]; 140 g/ha,0
same,HORVW Ob (Observed values),[13]; safener 4.4 g/ha alone,0%
same,HORVW Ob (Observed values),[13]; safener 8.8 g/ha alone,0%
same,HORVW Ob (Observed values),[13]; safener 17.5 g/ha alone,0%
same,HORVW Ob (Observed values),[13]; safener 35 g/ha alone,0%
Clc1cc(Cl)nc(-c2ccccc2)n1 [Fenclorim],VERPE Ob,[1]; 17.5 g/ha,0
same,VERPE Ob,[1]; 35 g/ha,0
same,VERPE Ob,[1]; 70 g/ha,0
same,VERPE Ob,[1]; 140 g/ha,0
same,LAMPU Ob,[2]; 17.5 g/ha,0
same,LAMPU Ob,[2]; 35 g/ha,0
same,LAMPU Ob,[2]; 70 g/ha,0
same,LAMPU Ob,[2]; 140 g/ha,0
same,PAPRH Ob,[3]; 17.5 g/ha,0
same,PAPRH Ob,[3]; 35 g/ha,0
same,PAPRH Ob,[3]; 70 g/ha,0
same,PAPRH Ob,[3]; 140 g/ha,0
same,VIOTR Ob,[4]; 17.5 g/ha,0
same,VIOTR Ob,[4]; 35 g/ha,0
same,VIOTR Ob,[4]; 70 g/ha,0
same,VIOTR Ob,[4]; 140 g/ha,0
same,SASKR Ob,[5]; 17.5 g/ha,0
same,SASKR Ob,[5]; 35 g/ha,0
same,SASKR Ob,[5]; 70 g/ha,0
same,SASKR Ob,[5]; 140 g/ha,0
same,POLCO Ob,[6]; 17.5 g/ha,0
same,POLCO Ob,[6]; 35 g/ha,0
same,POLCO Ob,[6]; 70 g/ha,0
same,POLCO Ob,[6]; 140 g/ha,0
same,MATCH Ob,[14]; 17.5 g/ha,0
same,MATCH Ob,[14]; 35 g/ha,0
same,MATCH Ob,[14]; 70 g/ha,0
same,MATCH Ob,[14]; 140 g/ha,0
same,STEME Ob,[9]; 17.5 g/ha,0
same,STEME Ob,[9]; 35 g/ha,0
same,STEME Ob,[9]; 70 g/ha,0
same,STEME Ob,[9]; 140 g/ha,0
same,GALAP Ob,[12]; 17.5 g/ha,0
same,GALAP Ob,[12]; 35 g/ha,0
same,GALAP Ob,[12]; 70 g/ha,0
same,GALAP Ob,[12]; 140 g/ha,0
same,KCHSC Ob,[15]; 17.5 g/ha,0
same,KCHSC Ob,[15]; 35 g/ha,0
same,KCHSC Ob,[15]; 70 g/ha,0
same,KCHSC Ob,[15]; 140 g/ha,0
